From US20260356856A1, “KRAS G12S AND G12C INHIBITORS” (MIRATI THERAPEUTICS, INC., priority 2023, published 2026)

Columns and labels:
KRas G12C = target: T1, KRas G12C (Homo sapiens, UniProt P01116, G12C); assay: KRas binding assay, TR-FRET displacement of Cy5 labelled tracer; settings: 60-minute incubation at room temperature, 1% DMSO, pH 7.5
T1 construct: Biotinylated KRas (corresponding to amino acids 1-169, produced at Accelegan Inc.); biotin (biotinylated); purchased Accelegan Inc
Outline: (§1)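 Room-temperature incubation (60 min) of compound with biotinylated KRas 1-169, tracer and Tb-streptavidin preceded the TR-FRET read. Final DMSO was 1%; buffer pH 7.5. Percent-of-control values went into a 4-parameter equation to give IC50.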

KRas G12S = target: T2, KRas G12S (Homo sapiens, UniProt P01116, G12S); assay: as above; settings: 60-minute incubation at room temperature, 1% DMSO, pH 7.5
T2 construct: Biotinylated KRas (corresponding to amino acids 1-169, produced at Accelegan Inc.); biotin (biotinylated); purchased Accelegan Inc
Outline: as §1

KRas WT = target: T3, KRas WT (Homo sapiens, UniProt P01116); assay: as above; settings: 60-minute incubation at room temperature, 1% DMSO, pH 7.5
T3 construct: Biotinylated KRas (corresponding to amino acids 1-169, produced at Accelegan Inc.); biotin (biotinylated); purchased Accelegan Inc
Outline: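 Displacement measured on KRas residues 1-169 (biotinylated, terbium-streptavidin labelled); 1 h, RT; 1% DMSO final; HEPES pH 7.5 / MgCl2 / Tween-20 / DTT. IC50: 4-parameter fit.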

[1] = target: T4, KRas-mediated phosphorylation of ERK in MKN1 cells (Homo sapiens, UniProt P01116); assay: Inhibition of KRas-mediated phosphorylation of ERK (HTRF), MKN1 cells; type: cell-based; settings: MKN1 cells (KRas WT); HTRF pERK; 3 h incubation
T4 construct: pERK HTRF read-out
Description: Inhibition of KRas Phosphorylation of ERK (HTRF) by Exemplary Compounds of Formula (Ia) or (Ib)
Cisbio HTRF Advanced pERK Assay Catalog #64AERPEH • Cells: MKN1, PSN1 • Procedure: • 1. Day 1: Seed 6,000 cells/well −25 μl/well in 384-well white solid bottom plate; RPM1_10% FBS. Incubate overnight at 37 °C/5% CO2. • 2.

[2] = target: T5, KRas-mediated phosphorylation of ERK in A549 cells (Homo sapiens, UniProt P01116, G12S); assay: Inhibition of KRas-mediated phosphorylation of ERK (HTRF), A549 cells; type: cell-based; settings: HTRF pERK, 3 h incubation
T5 construct: pERK HTRF read-out
T5 sequence (P01116 1-188 isoform P01116-2 G12S): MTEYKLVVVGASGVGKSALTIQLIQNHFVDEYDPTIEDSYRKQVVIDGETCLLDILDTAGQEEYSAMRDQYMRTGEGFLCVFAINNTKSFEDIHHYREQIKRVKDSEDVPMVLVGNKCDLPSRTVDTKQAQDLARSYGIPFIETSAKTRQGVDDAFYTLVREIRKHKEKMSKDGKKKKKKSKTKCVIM

T4 sequence (P01116 1-188 isoform P01116-2): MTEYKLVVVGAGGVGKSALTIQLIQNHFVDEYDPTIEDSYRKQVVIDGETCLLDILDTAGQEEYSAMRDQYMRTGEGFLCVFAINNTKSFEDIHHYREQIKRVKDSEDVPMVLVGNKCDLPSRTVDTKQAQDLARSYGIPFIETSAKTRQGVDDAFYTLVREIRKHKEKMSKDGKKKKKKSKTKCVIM
T3 sequence (P01116 1-169 isoform P01116-2): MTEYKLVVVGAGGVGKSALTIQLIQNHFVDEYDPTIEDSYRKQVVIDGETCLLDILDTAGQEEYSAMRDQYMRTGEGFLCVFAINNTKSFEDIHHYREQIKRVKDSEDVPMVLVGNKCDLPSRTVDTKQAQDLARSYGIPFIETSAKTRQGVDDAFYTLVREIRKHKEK
T2 sequence (P01116 1-169 isoform P01116-2 G12S): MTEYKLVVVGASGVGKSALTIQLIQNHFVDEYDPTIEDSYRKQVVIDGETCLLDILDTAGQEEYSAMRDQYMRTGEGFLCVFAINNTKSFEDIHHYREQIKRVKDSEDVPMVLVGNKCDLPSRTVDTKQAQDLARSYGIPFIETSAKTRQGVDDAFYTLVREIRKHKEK
T1 sequence (P01116 1-169 isoform P01116-2 G12C): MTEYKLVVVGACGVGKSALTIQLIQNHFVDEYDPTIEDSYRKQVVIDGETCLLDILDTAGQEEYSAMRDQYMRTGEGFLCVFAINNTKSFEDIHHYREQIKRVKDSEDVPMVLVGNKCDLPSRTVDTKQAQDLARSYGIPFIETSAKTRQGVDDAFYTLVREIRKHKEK

| IC50 (KRas G12C) [nM] | IC50 (KRas G12S) [nM] | IC50 (KRas WT) [nM] | IC50 [1] [nM] | IC50 [2] [nM] | Structure (SMILES) |
| --- | --- | --- | --- | --- | --- |
| 4120 | 1800 | 260 | 2670 | > 10000 | CCc1c(F)ccc2cc(O)cc(-c3ncc4c(N5C[C@H]6CC(C(=O)n7ccc(C)n7)C[C@@H]6C5)nc(OC[C@@]56CCCN5C[C@H](F)C6)nc4c3F)c12 [Example 115, ((3aS,6aS)-2-(7-(8-ethyl-7-fluoro-3-hydroxynaphthalen-1-yl)-8-fluoro-2-(((2R,7aS)-2-fluorotetrahydro-1H-pyrrolizin-7a(5H)-yl)methoxy)pyrido[4,3-d]pyrimidin-4-yl)octahydrocyclopenta[c]pyrrol-5-yl)(3-methyl-1H-pyrazol-1-yl)methanone] |
| 64 | 42 | 26 | 110 | 167 | Cc1ccn(C(=O)[C@@H]2[C@@H]3CCN(c4nc(OC[C@@]56CCCN5C[C@H](F)C6)nc5c(F)c(-c6ccc(F)c7sc(N)c(C#N)c67)c(Cl)cc45)C[C@@H]32)n1 [Example 179, 2-amino-4-(6-chloro-8-fluoro-2-(((2R,7aS)-2-fluorotetrahydro-1H-pyrrolizin-7a(5H)-yl)methoxy)-4-((1S,6R)-7-(3-methyl-1H-pyrazole-1-carbonyl)-3-azabicyclo[4.1.0]heptan-3-yl)quinazolin-7-yl)-7-fluorobenzo[b]thiophene-3-carbonitrile] |
| 22 | 14 | 40 | 529 | 584 | CCc1c(F)ccc2cc(O)cc(-c3ncc4c(N5CC6CCC(C(=O)n7ccc(C)n7)(C6)C5)nc(OC[C@@]56CCCN5C[C@H](F)C6)nc4c3F)c12 (stereo partly drawn) [Example 106, (3-(7-(8-ethyl-7-fluoro-3-hydroxynaphthalen-1-yl)-8-fluoro-2-(((2R,7aS)-2-fluorotetrahydro-1H-pyrrolizin-7a(5H)-yl)methoxy)pyrido[4,3-d]pyrimidin-4-yl)-3-azabicyclo[3.2.1]octan-1-yl)(3-methyl-1H-pyrazol-1-yl)methanone] |
| 11 | 9 | 19 | 80 | 15 | CCc1c(F)ccc2cc(O)cc(-c3ncc4c(NC[C@@H]5C[C@H]5C(=O)n5ccc(C)n5)nc(OC[C@@]56CCCN5C[C@H](F)C6)nc4c3F)c12 [Example 112, ((1R,2R)-2-(((7-(8-ethyl-7-fluoro-3-hydroxynaphthalen-1-yl)-8-fluoro-2-(((2R,7aS)-2-fluorotetrahydro-1H-pyrrolizin-7a(5H)-yl)methoxy)pyrido[4,3-d]pyrimidin-4-yl)amino)methyl)cyclopropyl)(3-methyl-1H-pyrazol-1-yl)methanone] |
| 13 | 10 | 44 | 142 | 29 | Cc1ccn(C(=O)C2CCCCN(c3nc(OC[C@@]45CCCN4C[C@H](F)C5)nc4c(F)c(-c5ccc(F)c6sc(N)c(C#N)c56)c(Cl)cc34)CC2)n1 (stereo partly drawn) [Example 137, 2-amino-4-(6-chloro-8-fluoro-2-(((2R,7aS)-2-fluorotetrahydro-1H-pyrrolizin-7a(5H)-yl)methoxy)-4-(4-(3-methyl-1H-pyrazole-1-carbonyl)azocan-1-yl)quinazolin-7-yl)-7-fluorobenzo[b]thiophene-3-carbonitrile] |
| 111 | 11 | 3480 | 4440 | 35 | CCc1c(F)ccc2cc(O)cc(-c3ncc4c(N5C[C@H]6CC(C(=O)n7ccc(C)n7)C[C@H]6C5)nc(OC[C@@]56CCCN5C[C@H](F)C6)nc4c3F)c12 (stereo partly drawn) [Example 116, ((3aR,6aS)-2-(7-(8-ethyl-7-fluoro-3-hydroxynaphthalen-1-yl)-8-fluoro-2-(((2R,7aS)-2-fluorotetrahydro-1H-pyrrolizin-7a(5H)-yl)methoxy)pyrido[4,3-d]pyrimidin-4-yl)octahydrocyclopenta[c]pyrrol-5-yl)(3-methyl-1H-pyrazol-1-yl)methanone] |
| 9 | 6 | 11 | 83 | 6 | Cc1ccn(C(=O)C2CCN(c3nc(OC[C@@]45CCCN4C/C(=C\F)C5)nc4c(F)c(-c5ccc(F)c6sc(N)c(C#N)c56)c(Cl)cc34)CC2)n1 [Example 135, 2-amino-4-(6-chloro-8-fluoro-2-(((S,Z)-2-(fluoromethylene)tetrahydro-1H-pyrrolizin-7a(5H)-yl)methoxy)-4-(4-(3-methyl-1H-pyrazole-1-carbonyl)piperidin-1-yl)quinazolin-7-yl)-7-fluorobenzo[b]thiophene-3-carbonitrile] |
| 59 | 46 | 21 | 187 | 1840 | Cc1ccn(C(=O)C2CCCN(c3nc(OC[C@@]45CCCN4C[C@H](F)C5)nc4c(F)c(-c5ccc(F)c6sc(N)c(C#N)c56)c(Cl)cc34)CCC2)n1 [Example 134, 2-amino-4-(6-chloro-8-fluoro-2-(((2R,7aS)-2-fluorotetrahydro-1H-pyrrolizin-7a(5H)-yl)methoxy)-4-(5-(3-methyl-1H-pyrazole-1-carbonyl)azocan-1-yl)quinazolin-7-yl)-7-fluorobenzo[b]thiophene-3-carbonitrile] |
| 73 | 20 | 178 | 2490 | 61 | CCc1c(F)ccc2cc(O)cc(-c3ncc4c(N5CC6CC(C(=O)n7ccc(C)n7)C6C5)nc(OC[C@@]56CCCN5C[C@H](F)C6)nc4c3F)c12 (stereo partly drawn) [Example 98, (3-(7-(8-ethyl-7-fluoro-3-hydroxynaphthalen-1-yl)-8-fluoro-2-(((2R,7aS)-2-fluorotetrahydro-1H-pyrrolizin-7a(5H)-yl)methoxy)pyrido[4,3-d]pyrimidin-4-yl)-3-azabicyclo[3.2.0]heptan-6-yl)(3-methyl-1H-pyrazol-1-yl)methanone] |
| 4 | 7 | 209 | 766 | 130 | CCc1c(F)ccc2cc(O)cc(N3CCc4c(nc(OC[C@@]56CCCN5C[C@H](F)C6)nc4N(C)CCCC(=O)n4ccc(C)n4)C3)c12 [Example 194, 4-((7-(8-ethyl-7-fluoro-3-hydroxynaphthalen-1-yl)-2-(((2R,7aS)-2-fluorotetrahydro-1H-pyrrolizin-7a(5H)-yl)methoxy)-5,6,7,8-tetrahydropyrido[3,4-d]pyrimidin-4-yl)(methyl)amino)-1-(3-methyl-1H-pyrazol-1-yl) butan-1-one] |
| 137 | 31 | 78 | 3150 | 110 | CCc1c(F)ccc2cc(O)cc(-c3ncc4c(N5CCC(CC(=O)n6ccc(C)n6)C5)nc(OC[C@@]56CCCN5C[C@H](F)C6)nc4c3F)c12 (stereo partly drawn) [Example 113, 2-(1-(7-(8-ethyl-7-fluoro-3-hydroxynaphthalen-1-yl)-8-fluoro-2-(((2R,7aS)-2-fluorotetrahydro-1H-pyrrolizin-7a(5H)-yl)methoxy)pyrido[4,3-d]pyrimidin-4-yl)pyrrolidin-3-yl)-1-(3-methyl-1H-pyrazol-1-yl) ethan-1-one] |
| 4 | 3 | 5 | 192 | 143 | Cc1ccn(C(=O)C23CCC(CN(c4nc(OC[C@@]56CCCN5C[C@H](F)C6)nc5c(F)c(-c6ccc(F)c7sc(N)c(C#N)c67)c(Cl)cc45)C2)C3)n1 (stereo partly drawn) [Example 183, 2-amino-4-(6-chloro-8-fluoro-2-(((2R,7aS)-2-fluorotetrahydro-1H-pyrrolizin-7a(5H)-yl)methoxy)-4-(1-(3-methyl-1H-pyrazole-1-carbonyl)-3-azabicyclo[3.2.1]octan-3-yl)quinazolin-7-yl)-7-fluorobenzo[b]thiophene-3-carbonitrile] |
| 15 | 232 | 306 | 6200 | 1070 | CCc1c(F)ccc2cc(O)cc(-c3ncc4c(N5CCC(C)(C(=O)n6ccc(C)n6)C5)nc(OC[C@@]56CCCN5C[C@H](F)C6)nc4c3F)c12 (stereo partly drawn) [Example 94, (1-(7-(8-ethyl-7-fluoro-3-hydroxynaphthalen-1-yl)-8-fluoro-2-(((2R,7aS)-2-fluorotetrahydro-1H-pyrrolizin-7a(5H)-yl)methoxy)pyrido[4,3-d]pyrimidin-4-yl)-3-methylpyrrolidin-3-yl)(3-methyl-1H-pyrazol-1-yl)methanone] |
| 29 | 23 | 13 | 112 | 126 | CCc1c(F)ccc2cc(O)cc(-c3ncc4c(NC[C@@H]5C[C@H]5C(=O)n5ccc(C)n5)nc(OC[C@@]56CCCN5C[C@H](F)C6)nc4c3F)c12 [Example 158, ((1R,2R)-2-(((7-(8-ethyl-7-fluoro-3-hydroxynaphthalen-1-yl)-8-fluoro-2-(((2R,7aS)-2-fluorotetrahydro-1H-pyrrolizin-7a(5H)-yl)methoxy)pyrido[4,3-d]pyrimidin-4-yl)amino)methyl)cyclopropyl)(3-methyl-1H-pyrazol-1-yl)methanone] |
